Tested on: bacteria/yeast and mold
Experiment: Antimicrobial Preservation Effectiveness Test (micro robustness), double challenge test
Assay type: cell-based
Settings: for microbial control: preservative in mouthwash formulation, separately or in combination
Description: The Antimicrobial Preservation Effectiveness Test is used to determine the antimicrobial preservation effectiveness of water-based product formulations by means of a double challenge test. Products are developed to withstand microbial challenges introduced by normal consumer use. The test is run on an aged sample (13 weeks, 40° C.). The test uses two pools of microorganisms: bacteria/yeast and mold. The product is challenged at a 1% level at day 0 and at day 7. Reduction of the inoculum is monitored over a 28 day period. The following are the acceptance criteria for mouth wash formulas. • Bacteria and Yeast must show a 99.9% reduction (3 logs) of the bacterial inoculum as determined by plate count on day 7 following each inoculation. No increase after day 7 of the second inoculation and for the remainder of the test within normal variation of the data. • Mold must show a 90.0% reduction (1 log) of the mold inoculum as determined by the plate count on day 14 following the second inoculation (day 21). No increase from day 14 to day 21 of the second inoculation of the test within normal variation of the data.

Row | Structure (SMILES) | microbial control | antimicrobial efficacy (amount reduced to 0.001%)
1 | OCc1ccccc1 [Benzyl alcohol, benzyl alcohol] | acceptable microbial control | –
2 | CCCCCCCC(=O)OCC(O)CO (stereo not shown) [Lexgard/gmcy, glycerol monocaprylate] | acceptable microbial control | –
3 | Cn1sccc1=O [MIT, methylisothiazolinone] | acceptable microbial control | retaining antimicrobial efficacy
